One test deals with JMJD2C (Homo sapiens (Human), UniProt Q9H3R0). Briefly: In vitro enzyme inhibition assay for JMJD2C activity (TR-FRET). The format is biochemical. The method in brief: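 Demethylation product H3K9me2 quantified by TR-FRET ratio 665/615 after EDTA stop and 1 h with Eu-anti-H3K9me2 and streptavidin-APC; IC50 by curve fit. Reaction: 0.3 nM JMJD2C (AA 2-372, baculovirus), 2 μM α-ketoglutarate, 300 nM biotin-H3K9me3 peptide, pH 7.3 HEPES with Fe(II)/ascorbate, 30 min room temperature.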
Chain of JMJD2C (Q9H3R0 2-372): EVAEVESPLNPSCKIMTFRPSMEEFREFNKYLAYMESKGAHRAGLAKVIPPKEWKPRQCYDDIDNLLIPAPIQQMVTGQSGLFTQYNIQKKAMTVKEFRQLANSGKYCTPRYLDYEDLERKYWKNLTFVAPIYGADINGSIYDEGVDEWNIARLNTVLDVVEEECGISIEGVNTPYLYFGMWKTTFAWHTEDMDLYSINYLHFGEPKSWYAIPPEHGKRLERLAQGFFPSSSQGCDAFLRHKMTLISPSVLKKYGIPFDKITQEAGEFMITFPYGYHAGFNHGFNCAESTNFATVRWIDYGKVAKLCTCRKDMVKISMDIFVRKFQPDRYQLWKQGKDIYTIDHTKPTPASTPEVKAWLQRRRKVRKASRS

The subject of test [1] is KYSE-150 esophageal carcinoma cell line. Briefly: In vitro cell-based assay: cellular proliferation via BrdU incorporation (ELISA). Further details: species or system human. The settings on record: Homo sapiens, KYSE-150, 168 hours compound incubation. The procedure: The primary cellular assay for JMJD2C inhibition is an assay which measures cellular proliferation via Bromodeoxyuridine (BrdU) incorporation after 168 hours of compound incubation. Cell lines tested include the JMJD2C gene amplified cell line KYSE-150. This is a quantitative ELISA assay measuring DNA incorporation of BrdU during S-phase as a direct readout of cellular proliferation.
Assay Principle: This is a colorimetric immunoassay for the quantification of cell proliferation. Cells treated for 168 hours with test compounds are assayed for their ability to go through S-phase as a measure of their proliferative potential.
Assay Method: The human KYSE-150 (SMAD4 mut, TP53 mut) esophageal carcinoma cell line was seeded at 2,000 cells/well on a 96-well tissue culture treated plate. After an overnight incubation, cells were treated with compound in an 11-point dilution series with final concentrations ranging from 100 μM to 2 nM. Cells were then incubated in the presence of compound for 168 hours. After compound incubation the cells were assayed using a BrdU Cell Proliferation ELISA (Roche). The cells were first incubated with BrdU labeling reagent for 2 hours. After 2 hours, the BrdU incorporated cells were fixed and denatured, probed with an anti-BrdU-Peroxidase antibody for 1.5 hours and washed. Finally, a tetramethylbenzidine peroxidase substrate was added to each well for 15 minutes followed by a H2SO4 stop solution. The plate was read at 450 nm, and the raw optical density data was transferred into XLFit (IDBS) for IC50 calculation using the formula: fit=(D+((Vmax*(x^n))/((x^n)+(Km^n))))
Background: Incorporation of labelled thymidine or its analogues reports DNA synthesis.

As a reminder, the IC50 is the concentration needed to halve the response being measured.

Structures are written as SMILES. Counter-ions that a name gives are not always drawn. Some results are limits rather than exact numbers.

For `Cc1cc(F)ccc1Oc1ccc2c(c1)CCC[C@H]2CNc1cnccc1C(=O)O` [Example 64, 3-({[(1R)-6-(4-fluoro-2-methylphenoxy)-1,2,3,4-tetrahydronaphthalen-1-yl]methyl}amino)pyridine-4-carboxylic acid], the 50% inhibitory concentration (IC50) against JMJD2C is 100 to 1000 nM; in test [1], at most 100 nM.

`O=C(O)c1ccncc1NC[C@@H]1CCCc2cc(Oc3ccc(F)cc3F)ccc21` [Example 65, 3-({[(1R)-6-(2,4-difluorophenoxy)-1,2,3,4-tetrahydronaphthalen-1-yl]methyl}amino)pyridine-4-carboxylic acid]: the IC50 (on JMJD2C; in test [1]) was 100 to 1000 nM in each case.

Regarding `O=C(O)c1ccncc1NC[C@@H]1CCCc2cc(Oc3ccccc3Cl)ccc21` [Example 67, 3-({[(1R)-6-(2-chlorophenoxy)-1,2,3,4-tetrahydronaphthalen-1-yl]methyl}amino)pyridine-4-carboxylic acid], the IC50 (at JMJD2C; in test [1]) was 100 to 1000 nM throughout.

Take `Cc1cccc(Sc2ccc3c(c2)CCC[C@H]3CNc2cnccc2C(=O)O)c1` [Example 69, 3-({[(1R)-6-[(3-methylphenyl)sulfanyl]-1,2,3,4-tetrahydronaphthalen-1-yl]methyl}amino)pyridine-4-carboxylic acid]: the figures for the IC50 (on JMJD2C; in test [1]) were 1000 to 10000 nM and 100 to 1000 nM, respectively.

As for `Cc1ccccc1Sc1ccc2c(c1)CCC[C@H]2CNc1cnccc1C(=O)O` [Example 71, 3-({[(1R)-6-[(2-methylphenyl)sulfanyl]-1,2,3,4-tetrahydronaphthalen-1-yl]methyl}amino)pyridine-4-carboxylic acid], the half-maximal inhibitory concentration (IC50) at JMJD2C lay within 1000 to 10000 nM; in test [1] it was 100 to 1000 nM.

With `O=C(O)c1ccncc1NC[C@@H]1CCCc2cc(Sc3ccccc3F)ccc21` [Example 73, 3-({[(1R)-6-[(2-fluorophenyl)sulfanyl]-1,2,3,4-tetrahydronaphthalen-1-yl]methyl}amino)pyridine-4-carboxylic acid], the IC50 (at JMJD2C; in test [1]) was 100 to 1000 nM throughout.

In the case of `O=C(O)c1ccncc1NC[C@@H]1CCCc2cc(Sc3ccc(F)cc3)ccc21` [Example 77, 3-({[(1R)-6-[(4-fluorophenyl)sulfanyl]-1,2,3,4-tetrahydronaphthalen-1-yl]methyl}amino)pyridine-4-carboxylic acid], the half-inhibitory concentration (IC50) against JMJD2C was 100 to 1000 nM; in test [1], at most 100 nM.

`Cc1ccc(Sc2ccc3c(c2)CCC[C@H]3CNc2cnccc2C(=O)O)cc1` [Example 79, 3-({[(1R)-6-[(4-methylphenyl)sulfanyl]-1,2,3,4-tetrahydronaphthalen-1-yl]methyl}amino)pyridine-4-carboxylic acid]: the concentration for half-maximal inhibition (IC50) was 1000 to 10000 nM at JMJD2C and at most 100 nM in test [1].

As for `O=C(O)c1ccncc1NCC1CCCc2cc(Sc3ccccn3)ccc21` (centres unmarked) [Example 80, 3-({[6-(pyridin-2-ylsulfanyl)-1,2,3,4-tetrahydronaphthalen-1-yl]methyl}amino)pyridine-4-carboxylic acid], the IC50 on JMJD2C lay within 100 to 1000 nM; in test [1] it was 1000 to 10000 nM.

Turning to `O=C(O)c1ccncc1NC[C@@H]1CCCc2cc(S(=O)(=O)c3ccccc3)ccc21` [Example 82, 3-({[(1R)-6-(benzenesulfonyl)-1,2,3,4-tetrahydronaphthalen-1-yl]methyl}amino)pyridine-4-carboxylic acid], the IC50 on JMJD2C is 100 to 1000 nM; in test [1], above 10000 nM.

With `Cc1ccc(S(=O)(=O)c2ccc3c(c2)CCC[C@H]3CNc2cnccc2C(=O)O)cc1` [Example 84, 3-({[(1R)-6-(4-methylbenzenesulfonyl)-1,2,3,4-tetrahydronaphthalen-1-yl]methyl}amino)pyridine-4-carboxylic acid], the figures for the IC50 (against JMJD2C; in test [1]) were 100 to 1000 nM and above 10000 nM, respectively.

On to `Cc1cccc(S(=O)(=O)c2ccc3c(c2)CCC[C@H]3CNc2cnccc2C(=O)O)c1` [Example 86, 3-({[(1R)-6-(3-methylbenzenesulfonyl)-1,2,3,4-tetrahydronaphthalen-1-yl]methyl}amino)pyridine-4-carboxylic acid], for which the concentration for half-maximal inhibition (IC50) is 100 to 1000 nM against JMJD2C and above 10000 nM in test [1].

On to `O=C(O)c1ccncc1NCC1CCCc2cc(C3CCOCC3)ccc21` (centres unmarked) [Example 88, 3-({[6-(oxan-4-yl)-1,2,3,4-tetrahydronaphthalen-1-yl]methyl}amino)pyridine-4-carboxylic acid], for which the half-maximal inhibitory concentration (IC50) was 100 to 1000 nM against JMJD2C and above 10000 nM in test [1].

On to `Cc1cc(-c2ccc3c(c2)CCCC3CNc2cnccc2C(=O)O)ccn1` (centres unmarked) [Example 89, 3-({[6-(2-methylpyridin-4-yl)-1,2,3,4-tetrahydronaphthalen-1-yl]methyl}amino)pyridine-4-carboxylic acid, hydrochloride], for which the half-inhibitory concentration (IC50) against JMJD2C is 100 to 1000 nM; in test [1], above 10000 nM.

On to `CCc1ccc2c(c1)CCC[C@H]2CNc1cnccc1C(=O)O` [Example 91, 3-({[(1R)-6-ethyl-1,2,3,4-tetrahydronaphthalen-1-yl]methyl}amino)pyridine-4-carboxylic acid], for which the concentration for half-maximal inhibition (IC50) on JMJD2C was in the range of 100 to 1000 nM; in test [1], 1000 to 10000 nM.

`O=C(O)c1ccncc1NCC1CCCc2c1ccc1c2OCC1` (centres unmarked) [Example 92, 3-({2H,3H,6H,7H,8H,9H-naphtho[1,2-b]furan-6-ylmethyl}amino)pyridine-4-carboxylic acid]: the IC50 is 100 to 1000 nM at JMJD2C and 1000 to 10000 nM in test [1].

For `Cc1cc2c(cc1C)C(CNc1cnccc1C(=O)O)CCO2` (centres unmarked) [Example 93, 3-{[(6,7-dimethyl-3,4-dihydro-2H-1-benzopyran-4-yl)methyl]amino}pyridine-4-carboxylic acid], the figures for the IC50 (on JMJD2C; in test [1]) were 100 to 1000 nM and 1000 to 10000 nM, respectively.

For `COc1cc2c(cc1C)C(CNc1cnccc1C(=O)O)CCC2` (centres unmarked) [Example 94, 3-{[(6-methoxy-7-methyl-1,2,3,4-tetrahydronaphthalen-1-yl)methyl]amino}pyridine-4-carboxylic acid], the IC50 (on JMJD2C; in test [1]) was 100 to 1000 nM throughout.

Consider `COc1cc2c(c(OC)c1)C(CNc1cnccc1C(=O)O)CCC2` (centres unmarked) [Example 95, 3-{[(6,8-dimethoxy-1,2,3,4-tetrahydronaphthalen-1-yl)methyl]amino}pyridine-4-carboxylic acid], for which the concentration for half-maximal inhibition (IC50) on JMJD2C was 100 to 1000 nM; in test [1], above 10000 nM.

Consider `COc1cc2c(cc1F)[C@H](CNc1cnccc1C(=O)O)CCC2` [Example 97, 3-({[(1R)-7-fluoro-6-methoxy-1,2,3,4-tetrahydronaphthalen-1-yl]methyl}amino)pyridine-4-carboxylic acid], for which the IC50 fell in the range of 100 to 1000 nM against JMJD2C and 1000 to 10000 nM in test [1].

Turning to `Cc1ccccc1-c1ccc2c(c1)OCC[C@H]2CNc1cnccc1C(=O)O` [Example 101, 3-({[(4R)-7-(2-methylphenyl)-3,4-dihydro-2H-1-benzopyran-4-yl]methyl}amino)pyridine-4-carboxylic acid], the IC50 on JMJD2C was 100 to 1000 nM; in test [1], at most 100 nM.

Turning to `COc1ccc(F)cc1-c1ccc2c(c1)OCC[C@H]2CNc1cnccc1C(=O)O` [Example 102, 3-({[(4R)-7-(5-fluoro-2-methoxyphenyl)-3,4-dihydro-2H-1-benzopyran-4-yl]methyl}amino)pyridine-4-carboxylic acid], the IC50 (on JMJD2C; in test [1]) was 100 to 1000 nM throughout.

Source of the values: patent US10106534B2 (CELGENE QUANTICEL RESEARCH, INC., priority 2014, dated 2018).
